The test system of experiment [1] is Hela Cells. As to the kind of experiment: Cellular ER stress model (tunicamycin, WST-8 cell viability). To be noted: for AntiERStress (% Cell Survival): HeLa cells, tunicamycin 48 hours, WST-8; for % Cell Survival Cmpd(2.5 μM) + Tuni: compound 2.5 μM + tunicamycin, WST-8 viability 48 hours after tunicamycin treatment. (In general: Formazan colour is commonly taken as a measure of viable cells.)

In experiment [2] the test system is CAD5 cells. It counts as cell-based.
[3] abbreviates: Homo sapiens, HeLa, 48 h, read-out: % Cell Survival Cmpd(2.5 μM) + Tuni, Hela cells, compound 2.5 μM + tunicamycin, WST-8 viability 48 hours after tunicamycin treatment.
Setting [4] is: Homo sapiens, HeLa, 48 h, read-out: Compounds ERS (vs Tn), ERS activity vs Tuni = % cell survival (compound)/% cell survival (tunicamycin), compound 2.5 μM.

Where a name gives a salt, the structure may show the parent alone. Read-outs that look alike come from different tables or passages of the source.

In the case of `N=C(N)N/N=C/c1c(Cl)cc(O)cc1Cl` [BC1-167-1, (E)-2-(2,6-dichloro-4-hydroxybenzylidene)hydrazinecarboximidamide acetate], the “AntiERStress (% Cell Survival)” value in experiment [1] is 45.93 % Cell Survival. Also, in experiment [2], the 1/Elispot turned out to be 0.87, the “AntiPrion (Number of Cells × 10^4)” value was 9 × 10^4, the “EliSpot (Spots/10000 Cells)” value came out at 1500 Spots/10000 Cells and the “Elispot (vs PC)” value turned out to be 1.15.
Turning to `N=C(N)N/N=C\c1c(Cl)cc(O)cc1Cl` [BC1-171-1], the “AntiERStress (% Cell Survival)” value in experiment [1] is 52.54 % Cell Survival. Besides, in experiment [2], the 1/Elispot amounted to 1.00, the “AntiPrion (Number of Cells × 10^4)” value was 16 × 10^4, the “EliSpot (Spots/10000 Cells)” value is given as 1300 Spots/10000 Cells and the “Elispot (vs PC)” value came to 1.00.
`Clc1cc(Cl)cc(NC2=NCCN2)c1` [BC1-242-2, N-(3,5-dichlorophenyl)-4,5-dihydro-1H-imidazol-2-amine]: in experiment [1], the “AntiERStress (% Cell Survival)” value came out at 57.56 % Cell Survival. Further, in experiment [2], the 1/Elispot is listed as 1.86, the “AntiPrion (Number of Cells × 10^4)” value is listed as 50 × 10^4, the “EliSpot (Spots/10000 Cells)” value worked out at 700 Spots/10000 Cells and the “Elispot (vs PC)” value was 0.54.
Taken in the same sequence, the figures for `N=C(N)NCCc1c(Cl)cccc1Cl` [BC1-252-2, 1-(2,6-dichlorophenethyl)guanidine] were 49.49 % Cell Survival, 0.72, 8 × 10^4, 1800 Spots/10000 Cells and 1.38.
`N=C(N)Nc1c(Cl)cccc1Cl` [BC1-256-2, 1-(2,6-dichlorophenyl)guanidine]: the “AntiERStress (% Cell Survival)” value in experiment [1] came out at 54.77 % Cell Survival. Also, in experiment [2], the 1/Elispot stood at 1.44, the “AntiPrion (Number of Cells × 10^4)” value was 32 × 10^4, the “EliSpot (Spots/10000 Cells)” value was determined as 900 Spots/10000 Cells and the “Elispot (vs PC)” value is 0.69.
`C/C(=N\NC(=N)N)c1c(Cl)cccc1Cl` [BC1-259-2, (E)-2-(1-(2,6-dichlorophenyl)ethylidene)hydrazinecarboximidamide]: the “AntiERStress (% Cell Survival)” value in experiment [1] came to 62.87 % Cell Survival. Further, in experiment [2], the 1/Elispot turned out to be 1.63, the “AntiPrion (Number of Cells × 10^4)” value is 26 × 10^4, the “EliSpot (Spots/10000 Cells)” value was determined as 800 Spots/10000 Cells and the “Elispot (vs PC)” value was determined as 0.62.
Taken in the same sequence, the figures for `Cl.NC(=O)N/N=C/c1c(Cl)cccc1Cl` [BC1-262-1, (E)-2-(2,6-dichlorobenzylidene)hydrazinecarboxamide hydrochloride] were 64.7 % Cell Survival, 1.86, 53 × 10^4, 700 Spots/10000 Cells and 0.54.
Consider `N=C(N)Nn1ccnc1-c1c(Cl)cccc1Cl` [BC1-267-2, 1-(2-(2,6-dichlorophenyl)-1H-imidazol-1-yl)guanidine], for which the “AntiERStress (% Cell Survival)” value in experiment [1] was found to be 64.26 % Cell Survival. In addition, the viability at 2.5 µM in experiment [1] (setting [3]) is 42.3%. Moreover, the viability at 2.5 µM in experiment [1] (setting [4]) came out at 102%. Besides, in experiment [2], the 1/Elispot turned out to be 1.00, the “AntiPrion (Number of Cells × 10^4)” value is listed as 18 × 10^4, the “EliSpot (Spots/10000 Cells)” value was found to be 1300 Spots/10000 Cells and the “Elispot (vs PC)” value came to 1.00.
For `N=C(N)N/N=C/c1c(Cl)ccc(Cl)c1Cl` [BC1-282-1, (E)-2-(2,3,6-trichlorobenzylidene)hydrazinecarboximidamide acetate], the “AntiERStress (% Cell Survival)” value in experiment [1] was 101.2576 % Cell Survival. Besides, the viability at 2.5 µM in experiment [1] (setting [3]) was 71.6%. Moreover, in experiment [1] (setting [4]), the viability at 2.5 µM amounted to 172%. Moreover, in experiment [2], the 1/Elispot is on record as 0.76, the “AntiPrion (Number of Cells × 10^4)” value is on record as 10 × 10^4, the “EliSpot (Spots/10000 Cells)” value is reported as 1700 Spots/10000 Cells and the “Elispot (vs PC)” value is 1.31.
Consider `N=C(N)N/N=C/c1ccccc1` [BC1-295-1, (E)-2-benzylidenehydrazinecarboximidamide acetate], for which the “AntiERStress (% Cell Survival)” value in experiment [1] was 60.58 % Cell Survival. Besides, in experiment [2], the 1/Elispot is 2.17, the “AntiPrion (Number of Cells × 10^4)” value is 37 × 10^4, the “EliSpot (Spots/10000 Cells)” value was determined as 600 Spots/10000 Cells and the “Elispot (vs PC)” value is listed as 0.46.
Regarding `N=C(N)N/N=C/c1ccccc1Br` [BC1-297-1, (E)-2-(2-bromobenzylidene)hydrazinecarboximidamide acetate], the “AntiERStress (% Cell Survival)” value in experiment [1] was 90.49 % Cell Survival. For the same molecule, in experiment [2], the 1/Elispot turned out to be 0.93, the “AntiPrion (Number of Cells × 10^4)” value is recorded as 8 × 10^4, the “EliSpot (Spots/10000 Cells)” value was found to be 1400 Spots/10000 Cells and the “Elispot (vs PC)” value is on record as 1.08.
As to `Cc1ccccc1/C=N/NC(=N)N` [BC2-3-1, (E)-2-(2-methylbenzylidene)hydrazinecarboximidamide acetate], in experiment [1], the “AntiERStress (% Cell Survival)” value came to 82.07 % Cell Survival. Besides, in experiment [2], the 1/Elispot turned out to be 1.86, the “AntiPrion (Number of Cells × 10^4)” value is listed as 28 × 10^4, the “EliSpot (Spots/10000 Cells)” value was 700 Spots/10000 Cells and the “Elispot (vs PC)” value came to 0.54.
The matching figures for `N=C(N)N/N=C/c1c(F)cccc1Cl` [BC2-5-1, (E)-2-(2-chloro-6-fluorobenzylidene)hydrazinecarboximidamide acetate]: 104.9813 % Cell Survival, 1.63, 34 × 10^4, 800 Spots/10000 Cells and 0.62.
As to `N=C(N)N/N=C/c1cccc(Cl)c1Cl` [BC2-7-1, (E)-2-(2,3-dichlorobenzylidene)hydrazinecarboximidamide acetate], the “AntiERStress (% Cell Survival)” value in experiment [1] is on record as 100.0136 % Cell Survival. Moreover, the viability at 2.5 µM in experiment [1] (setting [3]) turned out to be 66.7%. The viability at 2.5 µM in experiment [1] (setting [4]) is 160%. Moreover, in experiment [2], the 1/Elispot worked out at 1.00, the “AntiPrion (Number of Cells × 10^4)” value is 3 × 10^4, the “EliSpot (Spots/10000 Cells)” value was 1300 Spots/10000 Cells and the “Elispot (vs PC)” value was 1.00.
`N=C(N)N/N=C/c1cccc(Cl)c1` [BC2-9-1, (E)-2-(3-chlorobenzylidene)hydrazinecarboximidamide acetate]: in experiment [1], the “AntiERStress (% Cell Survival)” value is 93.32 % Cell Survival. In experiment [2], the 1/Elispot is 1.44, the “AntiPrion (Number of Cells × 10^4)” value is listed as 33 × 10^4, the “EliSpot (Spots/10000 Cells)” value worked out at 900 Spots/10000 Cells and the “Elispot (vs PC)” value stood at 0.69.
For `N=C(N)N/N=C/c1ccccc1F` [BC2-11-1, (E)-2-(2-fluorobenzylidene)hydrazinecarboximidamide acetate], the “AntiERStress (% Cell Survival)” value in experiment [1] was determined as 52.43 % Cell Survival. Moreover, in experiment [2], the 1/Elispot worked out at 1.63, the “AntiPrion (Number of Cells × 10^4)” value was 38 × 10^4, the “EliSpot (Spots/10000 Cells)” value was found to be 800 Spots/10000 Cells and the “Elispot (vs PC)” value was determined as 0.62.
Taken in the same sequence, the figures for `N=C(N)N/N=C/c1ccc(Cl)cc1` [BC2-13-1, (E)-2-(4-chlorobenzylidene)hydrazinecarboximidamide acetate] were 68.97 % Cell Survival, 0.72, 9 × 10^4, 1800 Spots/10000 Cells and 1.38.
Turning to `N=C(N)N/N=C/c1ccc(F)cc1Cl` [BC2-17-1, (E)-2-(2-chloro-4-fluorobenzylidene)hydrazinecarboximidamide acetate], the “AntiERStress (% Cell Survival)” value in experiment [1] is recorded as 104.8795 % Cell Survival. In addition, in experiment [2], the 1/Elispot was 1.00, the “AntiPrion (Number of Cells × 10^4)” value is 16 × 10^4, the “EliSpot (Spots/10000 Cells)” value was 1300 Spots/10000 Cells and the “Elispot (vs PC)” value amounted to 1.00.
With `N=C(N)NNCc1c(Cl)cccc1Cl` [JM3-227-2, 2-(2,6-dichlorobenzyl)hydrazine-1-carboximidamide], the “% Cell Survival Cmpd(2.5 μM) + Tuni” value in experiment [1] (Hela cells) came out at 27.92%.
As for `N=C(N)N/N=C/Cc1c(Cl)cccc1Cl` [JM3-239-2, (E)-2-(2-(2,6-dichlorophenyl)ethylidene)hydrazine-1-carboximidamide acetate], the viability at 2.5 µM in experiment [1] (setting [3]) is 28.1%; in experiment [1] (setting [4]) it was 119%.
In the case of `N=C1NCCCN1/N=C/c1c(Cl)cccc1Cl` [JM3-255-2, (E)-1-((2,6-dichlorobenzylidene)amino)tetrahydropyrimidin-2(1H)-imine hydrobromide], the viability at 2.5 µM was 24.5% in experiment [1] (setting [3]) and 104% in experiment [1] (setting [4]).
As for `CN(/N=C/c1c(Cl)cccc1Cl)C(=N)N` [JM3-257-2, (E)-2-(2,6-dichlorobenzylidene)-1-methylhydrazine-1-carboximidamide hydroiodide], the figures for the viability at 2.5 µM in experiment [1] (setting [3]) and in experiment [1] (setting [4]) were 31.2% and 132%, respectively.
Turning to `CC(Oc1c(Cl)cccc1Cl)C1=NCCN1` (stereo not drawn) [Lofexidine Hcl], the values for the viability at 2.5 µM in experiment [1] (setting [3]) and in experiment [1] (setting [4]) were 35.4% and 107%, respectively.
Turning to `O=C(/C=C/c1ccccc1)NC(NC(=S)Nc1ccc(Cl)cc1)C(Cl)(Cl)Cl` (stereo not drawn) [Sal003], in experiment [1] (ERS activity vs Tuni = % cell survival (compound)/% cell survival (tunicamycin), compound 2.5 μM), the “Compounds ERS (vs Tn)” value was found to be 1.03. In experiment [1] (Hela cells), the “% Cell Survival Cmpd(2.5 μM) + Tuni” value is given as 33.17%.
Turning to `O=C(/C=C/c1ccccc1)NC(NC(=S)Nc1cccc2cccnc12)C(Cl)(Cl)Cl` (stereo not drawn) [Salubrinal, reference compound], the “% Cell Survival Cmpd + Tuni” value in experiment [1] (Hela cells, Salubrinal 25 μM + tunicamycin, WST-8 48 hours) worked out at 38.46%. The viability at 2.5 µM in experiment [1] (setting [3]) is 23.8%; in experiment [1] (setting [4]), 103%. The viability at 25 µM in experiment [1] (Homo sapiens, HeLa, 48 h, read-out: Compounds ERS (vs Tn), % cell survival (compound)/% cell survival (tunicamycin), Salubrinal 25 μM) is 116%.

These data come from patent US12006294B2, “Therapeutic compounds” (REGENTS OF THE UNIVERSITY OF MINNESOTA, priority 2017, dated 2024).
